According to patent US9617283B2, “Bicyclic heterocycle compounds and their uses in therapy” (ASTEX THERAPEUTICS LIMITED, priority 2012, dated 2017):
Structures can show the parent of a compound that is named as a salt.

These molecules were tested on EVSA-T (human breast carcinoma) (assay: Anti-proliferative activity, Alamar Blue assay, EVSA-T). Settings: Homo sapiens, EVSA-T, 72 h, EVSA-T cell line, 72 hours, Alamar Blue; read-out: EVSA-T prolif.
Format: cell-based

| Structure (SMILES) | EC50 [nM] |
| --- | --- |
| C[C@@H]1CN(CC(=O)N2CC(C)(C)c3ncc(Cc4ccc(F)cc4)cc32)[C@@H](CN2CC(C)(C)OCC2=O)CN1 [Example 97, 4-{[(2R,5R)-1-(2-{6-[(4-Fluorophenyl)methyl]-3,3-dimethyl-1H,2H,3H-pyrrolo[3,2-b]pyridin-1-yl}-2-oxoethyl)-5-methylpiperazin-2-yl]methyl}-6,6-dimethylmopholin-3-one dihydrochloride] | 9 |
| COC[C@@H]1CN(C[C@H]2CN[C@H](C)CN2CC(=O)N2CC(C)(C)c3nnc(Cc4ccc(F)cc4F)cc32)C(=O)CO1 [Example 101, (6S)-4-{[(2R,5R)-1-(2-{3-[(2,4-Difluorophenyl)methyl]-7,7-dimethyl-5H,6H,7H-pyrrolo[3,2-c]pyridazin-5-yl}-2-oxoethyl)-5-methylpiperazin-2-yl]methyl}-6-(methoxymethyl)morpholin-3-one dihydrochloride] | 25 |
| C[C@@H]1CN(CC(=O)N2CC(C)(C)c3nnc(Cc4ccc(F)cc4F)cc32)[C@@H](CN2Cc3c(C#N)cccc3C2=O)CN1 [Example 119, 2-{[(2R,5R)-1-(2-{3-[(2,4-Difluorophenyl)methyl]-7,7-dimethyl-5H,6H,7H-pyrrolo[3,2-c]pyridazin-5-yl}-2-oxoethyl)-5-methylpiperazin-2-yl]methyl}-1-oxo-2,3-dihydro-1H-isoindole-4-carbonitrile dihydrochloride] | 7.5 |

Same assay, conditions: Homo sapiens, EVSA-T, read-out: EC50 in EVSA-T cell line assays

| Structure (SMILES) | EC50 [nM] |
| --- | --- |
| C[C@@H]1CN(CC(=O)N2CC(C)(C)c3nnc(Cc4ccc(F)cc4F)cc32)[C@@H](CN2Cc3ccccc3C2=O)CN1 [Example 79, 2-{[(2R,5R)-1-(2-{3-[(2,4-Difluorophenyl)methyl]-7,7-dimethyl-5H,6H,7H-pyrrolo[3,2-c]pyridazin-5-yl}-2-oxoethyl)-5-methylpiperazin-2-yl]methyl}-2,3-dihydro-1H-isoindol-1-one dihydrochloride] | < 1000 |

Same assay, conditions: Homo sapiens, EVSA-T; read-out: EC50 in EVSA-T cell line assays

| Structure (SMILES) | EC50 [nM] |
| --- | --- |
| CCCC(F)(F)c1cc2c(nn1)C(C)(C)CN2C(=O)CN1C[C@@H](C)NC[C@@H]1CN1C[C@H](C)OCC1=O [Example 57, (6S)-4-{[(2R,5R)-1-{2-[3-(1,1-Difluorobutyl)-7,7-dimethyl-5H,6H,7H-pyrrolo[3,2-c]pyridazin-5-yl]-2-oxoethyl}-5-methylpiperazin-2-yl]methyl}-6-methylmorpholin-3-one] | < 1000 |
| CCCC(F)(F)c1cc2c(nn1)C(C)(C)CN2C(=O)CN1C[C@@H](C)NC[C@@H]1CN1C(=O)CO[C@@H](C)[C@H]1C [Example 58, (5R,6S)-4-{[(2R,5R)-1-{2-[3-(1,1-Difluorobutyl)-7,7-dimethyl-5H,6H,7H-pyrrolo[3,2-]pyridazin-5-yl]-2-oxoethyl}-5-methylpiperazin-2-yl]methyl}-5,6-dimethylmorpholin-3-one] | < 1000 |
| C[C@@H]1CN(CC(=O)N2CC(C)(C)c3ncc(Cc4ccc(F)cc4F)cc32)[C@@H](CN2Cc3ncccc3C2=O)CN1 [Example 62, 6-{[(2R,5R)-1-(2-{6-[(2,4-Difluorophenyl)methyl]-3,3-dimethyl-1H,2H,3H-pyrrolo[3,2-b]pyridin-1-yl}-2-oxoethyl)-5-methylpiperazin-2-yl]methyl}-5H,6H,7H-pyrrolo[3,4-b]pyridin-5-one] | < 1000 |
| C[C@@H]1CN(CC(=O)N2CC(C)(C)c3cnc(Cc4ccc(F)cc4F)cc32)[C@@H](CN2Cc3ncccc3C2=O)CN1 [Example 63, 6-{[(2R,5R)-1-(2-{6-[(2,4-Difluorophenyl)methyl]-3,3-dimethyl-1H,2H,3H-pyrrolo[3,2-c]pyridin-1-yl}-2-oxoethyl)-5-methylpiperazin-2-yl]methyl}-5H,6H,7H-pyrrolo[3,4-b]pyridin-5-one] | < 1000 |
| C[C@@H]1CN(CC(=O)N2CC(C)(C)c3nnc(Cc4ccc(F)cc4F)cc32)[C@@H](CN2Cc3ncccc3C2=O)CN1 [Example 64, 6-{[(2R,5R)-1-(2-{3-[(2,4-Difluorophenyl)methyl]-7,7-dimethyl-5H,6H,7H-pyrrolo[3,2-c]pyridazin-5-yl}-2-oxoethyl)-5-methylpiperazin-2-yl]methyl}-5H,6H,7H-pyrrolo[3,4-b]pyridin-5-one] | < 1000 |
| C[C@@H]1CN(CC(=O)N2CC(C)(C)c3nnc(Cc4ccc(F)cc4)cc32)[C@@H](CN2Cc3ncccc3C2=O)CN1 [Example 65, 6-{[(2R,5R)-1-(2-{3-[(4-Fluorophenyl)methyl]-7,7-dimethyl-5H,6H,7H-pyrrolo[3,2-c]pyridazin-5-yl}-2-oxoethyl)-5-methylpiperazin-2-yl]methyl}-5H,6H,7H-pyrrolo[3,4-b]pyridin-5-one] | < 1000 |
| CCCC(F)(F)c1cnc2c(c1)N(C(=O)CN1C[C@@H](C)NC[C@@H]1CN1Cc3ncccc3C1=O)CC2(C)C [Example 66, 6-{[(2R,5R)-1-{2-[6-(1,1-Difluorobutyl)-3,3-dimethyl-1H,2H,3H-pyrrolo[3,2-b]pyridin-1-yl]-2-oxoethyl}-5-methylpiperazin-2-yl]methyl}-5H,6H,7H-pyrrolo[3,4-b]pyridin-5-one] | < 1000 |
| CCCC(F)(F)c1cc2c(nn1)C(C)(C)CN2C(=O)CN1C[C@@H](C)NC[C@@H]1CN1Cc2ncccc2C1=O [Example 67, 6-{[(2R,5R)-1-{2-[3-(1,1-Difluorobutyl)-7,7-dimethyl-5H,6H,7H-pyrrolo[3,2-c]pyridazin-5-yl]-2-oxoethyl}-5-methylpiperazin-2-yl]methyl}-5H,6H,7H-pyrrolo[3,4-b]pyridin-5-one] | < 1000 |
| C[C@@H]1CN(CC(=O)N2CC(C)(C)c3ncc(Cc4ccc(F)cc4)cc32)[C@@H](CN2CC(C)(C)OCC2=O)CN1 [Example 97, 4-{[(2R,5R)-1-(2-{6-[(4-Fluorophenyl)methyl]-3,3-dimethyl-1H,2H,3H-pyrrolo[3,2-b]pyridin-1-yl}-2-oxoethyl)-5-methylpiperazin-2-yl]methyl}-6,6-dimethylmopholin-3-one dihydrochloride] | < 1000 |
| COC[C@@H]1CN(C[C@H]2CN[C@H](C)CN2CC(=O)N2CC(C)(C)c3nnc(Cc4ccc(F)cc4F)cc32)C(=O)CO1 [Example 101, (6S)-4-{[(2R,5R)-1-(2-{3-[(2,4-Difluorophenyl)methyl]-7,7-dimethyl-5H,6H,7H-pyrrolo[3,2-c]pyridazin-5-yl}-2-oxoethyl)-5-methylpiperazin-2-yl]methyl}-6-(methoxymethyl)morpholin-3-one dihydrochloride] | < 1000 |
| C[C@@H]1CN(CC(=O)N2CC(C)(C)c3nnc(Cc4ccc(F)cc4F)cc32)[C@@H](CN2Cc3c(C#N)cccc3C2=O)CN1 [Example 119, 2-{[(2R,5R)-1-(2-{3-[(2,4-Difluorophenyl)methyl]-7,7-dimethyl-5H,6H,7H-pyrrolo[3,2-c]pyridazin-5-yl}-2-oxoethyl)-5-methylpiperazin-2-yl]methyl}-1-oxo-2,3-dihydro-1H-isoindole-4-carbonitrile dihydrochloride] | < 1000 |

Same assay, conditions: Homo sapiens; EVSA-T cell line, 72 hours, Alamar Blue; read-out: EVSA-T prolif

| Structure (SMILES) | EC50 [nM] |
| --- | --- |
| C[C@@H]1CN(CC(=O)N2CC(C)(C)c3nnc(Cc4ccc(F)cc4)cc32)[C@@H](CN2Cc3ccccc3C2=O)CN1 [Example 61, 2-{[(2R,5R)-1-(2-{3-[(4-Fluorophenyl)methyl]-7,7-dimethyl-5H,6H,7H-pyrrolo[3,2-c]pyridazin-5-yl}-2-oxoethyl)-5-methylpiperazin-2-yl]methyl}-2,3-dihydro-1H-isoindol-1-one dihydrochloride] | 1.5 |
| C[C@@H]1CN(CC(=O)N2CC(C)(C)c3ncc(Cc4ccc(F)cc4F)cc32)[C@@H](CN2Cc3ccccc3C2=O)CN1 [Example 76, 2-{[(2R,5R)-1-(2-{6-[(2,4-Difluorophenyl)methyl]-3,3-dimethyl-1H,2H,3H-pyrrolo[3,2-b]pyridin-1-yl}-2-oxoethyl)-5-methylpiperazin-2-yl]methyl}-2,3-dihydro-1H-isoindol-1-one dihydrochloride] | 2.5 |
| C[C@@H]1CN(CC(=O)N2CC(C)(C)c3nnc(Cc4ccc(F)cc4F)cc32)[C@@H](CN2Cc3ccccc3C2=O)CN1 [Example 79, 2-{[(2R,5R)-1-(2-{3-[(2,4-Difluorophenyl)methyl]-7,7-dimethyl-5H,6H,7H-pyrrolo[3,2-c]pyridazin-5-yl}-2-oxoethyl)-5-methylpiperazin-2-yl]methyl}-2,3-dihydro-1H-isoindol-1-one dihydrochloride] | 0.2 |
| C[C@@H]1CN(CC(=O)N2CC(C)(C)c3nnc(Cc4ccc(F)cc4F)cc32)[C@@H](CN2Cc3ccc(F)cc3C2=O)CN1 [Example 93, 2-{[(2R,5R)-1-(2-{3-[(2,4-Difluorophenyl)methyl]-7,7-dimethyl-5H,6H,7H-pyrrolo[3,2-c]pyridazin-5-yl}-2-oxoethyl)-5-methylpiperazin-2-yl]methyl}-6-fluoro-2,3-dihydro-1H-isoindol-1-one dihydrochloride] | 0.5 |
| COc1ccc2c(c1)CN(C[C@H]1CN[C@H](C)CN1CC(=O)N1CC(C)(C)c3ncc(Cc4ccc(F)cc4)cc31)C2=O [Example 94, 2-{[(2R,5R)-1-(2-{6-[(4-Fluorophenyl)methyl]-3,3-dimethyl-1H,2H,3H-pyrrolo[3,2-b]pyridin-1-yl}-2-oxoethyl)-5-methylpiperazin-2-yl]methyl}-5-methoxy-2,3-dihydro-1H-isoindol-1-one dihydrochloride] | 4.8 |
| C[C@@H]1CN(CC(=O)N2CC(C)(C)c3ncc(Cc4ccc(F)cc4)cc32)[C@@H](CN2Cc3cccnc3C2=O)CN1 [Example 95, 6-{[(2R,5R)-1-(2-{6-[(4-Fluorophenyl)methyl]-3,3-dimethyl-1H,2H,3H-pyrrolo[3,2-b]pyridin-1-yl}-2-oxoethyl)-5-methylpiperazin-2-yl]methyl}-5H,6H,7H-pyrrolo[3,4-b]pyridin-7-one dihydrochloride] | 0.71 |
| C[C@@H]1CN(CC(=O)N2CC(C)(C)c3nnc(Cc4ccc(F)cc4F)cc32)[C@@H](CN2Cc3cc(F)ccc3C2=O)CN1 [Example 103, 2-{[(2R,5R)-1-(2-{3-[(2,4-Difluorophenyl)methyl]-7,7-dimethyl-5H,6H,7H-pyrrolo[3,2-c]pyridazin-5-yl}-2-oxoethyl)-5-methylpiperazin-2-yl]methyl}-5-fluoro-2,3-dihydro-1H-isoindol-1-one dihydrochloride] | 0.18 |
| C[C@@H]1CN(CC(=O)N2CC(C)(C)c3nnc(Cc4ccc(F)cc4F)cc32)[C@@H](CN2Cc3c(F)cccc3C2=O)CN1 [Example 104, 2-{[(2R,5R)-1-(2-{3-[(2,4-Difluorophenyl)methyl]-7,7-dimethyl-5H,6H,7H-pyrrolo[3,2-c]pyridazin-5-yl}-2-oxoethyl)-5-methylpiperazin-2-yl]methyl}-4-fluoro-2,3-dihydro-1H-isoindol-1-one dihydrochloride] | 0.12 |
| C[C@@H]1CN(CC(=O)N2CC(C)(C)c3nnc(Cc4ccc(F)cc4F)cc32)[C@@H](CN2Cc3cc(C#N)ccc3C2=O)CN1 [Example 109, 2-{[(2R,5R)-1-(2-{3-[(2,4-Difluorophenyl)methyl]-7,7-dimethyl-5H,6H,7H-pyrrolo[3,2-c]pyridazin-5-yl}-2-oxoethyl)-5-methylpiperazin-2-yl]methyl}-1-oxo-2,3-dihydro-1H-isoindole-5-carbonitrile dihydrochloride] | 0.64 |
| C[C@@H]1CN(CC(=O)N2CC(C)(C)c3nnc(Cc4ccc(F)cc4F)cc32)[C@@H](CN2Cc3ccc(C#N)cc3C2=O)CN1 [Example 114, 2-{[(2R,5R)-1-(2-{3-[(2,4-Difluorophenyl)methyl]-7,7-dimethyl-5H,6H,7H-pyrrolo[3,2-c]pyridazin-5-yl}-2-oxoethyl)-5-methylpiperazin-2-yl]methyl}-3-oxo-2,3-dihydro-1H-isoindole-5-carbonitrile dihydrochloride] | 1.4 |
